Data from patent US4260682A, “High sensitivity assays for angiotensin converting enzyme” (priority 1979, dated 1981).
Square brackets hold non-standard residues; d marks the D form. Ends that are not written are not given here. Peptide text beside a SMILES is read from it. pGlu = O=C1CC[C@@H](C(=O)O)N1

Experiments:
[1] = biological target: ACE (Homo sapiens, UniProt P12821); experiment: Comparison of sensitivity of ACE radioassays; type: biochemical
Description: A comparison of the sensitivity of the disclosed assay methods with each other and with prior art assays may be made by considering assays which depend upon measuring the radioactivity of the remnant reaction product. A prior art assay of this type, using ^3 H-HipGlyGly as substrate has been described (Ryan and Chung, supra). Of the two assays disclosed herein, the sulfate stimulated hydrolysis of ^3 H-HipHisLeu is approximately 20 times more sensitive, and the ^3 H-benzoylPheAlaPro assay is about 10 times more sensitive still. The latter is therefore approximately 200 times more sensitive than the assay using ^3 H-HipGlyGly.

[2] = Extraction from the acidified reaction mixture into organic solvent; type: physicochemical
Description: (§1) An even more sensitive assay for ACE activity has been developed using the novel compound ^3 H-benzoylPheAlaPro as substrate. This new substrate can be used to assay ACE in human urine in incubations as short as 15 minutes. The response of this substrate to ions is strikingly different from the response of HipHisLeu. […] This difficulty has been solved by the proper choice of extracting solvent. While a variety of organic solvents may be suitable for the extraction step, it is preferred to employ toluene. Approximately 88% of ^3 H-benzoylPhe enters the toluene phase while only 6% of the unhydrolyzed substrate enters the toluene phase, when toluene and the acidified reaction mixture are in approximately equal volumes at room temperatures.

[3] = test system: ACE; experiment: Sulfate and chloride effects on ACE catalysed hydrolysis (general description); type: biochemical; details: 0.05 M Hepes, pH 8.0
Description: An assay for ACE, using HipHisLeu as substrate, is herewith described. The assay is more sensitive than any heretofore disclosed using HipHisLeu as substrate. Maximum sensitivity is achieved by the inclusion of sulfate ions, preferably as sodium sulfate, in the reaction mixture. When 0.1 M NaCl is present in the reaction mixture, sulfate ions are stimulatory from 0.1 M to at least 1.1 M. Maximum stimulation occurs in the range from 0.75 M to 1.1 M Na2 SO4.
as §1
The enzyme is active over a broad pH range with a maximum around pH 8.0, but is at least about 50% active in the range pH 7.0-pH 8.8, for both HipHisLeu and benzoylPheAlaPro. Although the enzyme is active in a variety of buffer systems known in the art, it is preferred for convenience, when using benzoylPheAlaPro as substrate, to conduct the assays in 0.05 M Hepes buffer, pH 8.0 containing 0.15 M sodium chloride. Detailed protocols for carrying out the assay are given in the examples. […] The preferred concentration range is 1×10^-9 M to 7×10^- 5 M.

[4] = biological target: T1, Guinea pig serum ACE (Cavia porcellus, UniProt H0UWL7); experiment: Kinetics of benzoyl-Phe-Ala-Pro hydrolysis; details: read-out: apparent Km; 0.05 M Hepes, pH 8.0, 0.15 M NaCl; Lineweaver and Burke plot
T1 sequence (H0UWL7 33-1234): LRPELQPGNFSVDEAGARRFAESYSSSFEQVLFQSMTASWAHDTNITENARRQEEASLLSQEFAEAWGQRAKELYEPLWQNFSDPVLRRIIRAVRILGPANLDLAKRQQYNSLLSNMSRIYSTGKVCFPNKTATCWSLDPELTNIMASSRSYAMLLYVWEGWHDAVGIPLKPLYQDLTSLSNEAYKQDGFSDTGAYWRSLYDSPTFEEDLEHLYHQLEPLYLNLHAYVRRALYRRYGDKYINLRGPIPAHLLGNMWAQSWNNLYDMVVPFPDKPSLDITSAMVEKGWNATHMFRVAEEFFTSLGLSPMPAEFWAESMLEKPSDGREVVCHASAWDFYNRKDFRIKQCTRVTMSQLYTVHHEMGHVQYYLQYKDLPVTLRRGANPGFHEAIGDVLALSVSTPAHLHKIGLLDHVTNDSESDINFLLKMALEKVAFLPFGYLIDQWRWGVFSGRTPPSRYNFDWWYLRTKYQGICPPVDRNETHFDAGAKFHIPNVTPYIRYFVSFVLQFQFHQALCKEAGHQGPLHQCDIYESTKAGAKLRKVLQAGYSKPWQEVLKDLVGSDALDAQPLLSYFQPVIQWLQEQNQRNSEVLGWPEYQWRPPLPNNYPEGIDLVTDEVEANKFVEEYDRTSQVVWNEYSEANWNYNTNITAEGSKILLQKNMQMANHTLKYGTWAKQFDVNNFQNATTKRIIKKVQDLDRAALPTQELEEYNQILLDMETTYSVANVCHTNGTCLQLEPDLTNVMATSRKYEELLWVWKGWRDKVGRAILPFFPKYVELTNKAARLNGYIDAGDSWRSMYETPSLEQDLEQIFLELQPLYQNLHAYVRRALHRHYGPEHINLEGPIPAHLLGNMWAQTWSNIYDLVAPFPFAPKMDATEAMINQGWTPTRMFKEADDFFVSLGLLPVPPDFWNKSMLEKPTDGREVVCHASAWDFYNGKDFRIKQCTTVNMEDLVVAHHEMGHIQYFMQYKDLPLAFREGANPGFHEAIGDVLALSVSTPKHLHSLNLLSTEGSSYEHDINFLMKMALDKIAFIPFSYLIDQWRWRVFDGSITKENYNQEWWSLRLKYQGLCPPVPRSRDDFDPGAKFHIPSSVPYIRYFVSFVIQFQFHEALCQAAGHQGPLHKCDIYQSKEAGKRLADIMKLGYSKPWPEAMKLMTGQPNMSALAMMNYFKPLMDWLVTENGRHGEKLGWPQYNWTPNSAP
Description: Kinetics of Benzoyl-Phe-Ala-Pro Hydrolysis
The apparent Km for the ACE catalyzed hydrolysis of benzoyl-Phe-Ala-Pro was measured in the following manner. […] Guinea pig serum was diluted 1:1000 to provide the enzyme. A mixture of 50 μl diluted serum and 50 μl of substrate, diluted in the reaction buffer to provide the appropriate substrate concentration for each experiment, was incubated at 37° C. for 10 minutes. At the end of the incubation, 1.0 ml of 0.1 M HCl was added to stop the reaction. The reaction mixture was then extracted with 1.0 ml toluene, and a 0.5 ml aliquot of the toluene phase was counted in a scintillation counter.

[5] = test system: ACE; details: cited from earlier work
[6] = biological target: T2, ACE (Oryctolagus cuniculus, UniProt P12822); details: cited from earlier work
T2 sequence (P12822 34-1310): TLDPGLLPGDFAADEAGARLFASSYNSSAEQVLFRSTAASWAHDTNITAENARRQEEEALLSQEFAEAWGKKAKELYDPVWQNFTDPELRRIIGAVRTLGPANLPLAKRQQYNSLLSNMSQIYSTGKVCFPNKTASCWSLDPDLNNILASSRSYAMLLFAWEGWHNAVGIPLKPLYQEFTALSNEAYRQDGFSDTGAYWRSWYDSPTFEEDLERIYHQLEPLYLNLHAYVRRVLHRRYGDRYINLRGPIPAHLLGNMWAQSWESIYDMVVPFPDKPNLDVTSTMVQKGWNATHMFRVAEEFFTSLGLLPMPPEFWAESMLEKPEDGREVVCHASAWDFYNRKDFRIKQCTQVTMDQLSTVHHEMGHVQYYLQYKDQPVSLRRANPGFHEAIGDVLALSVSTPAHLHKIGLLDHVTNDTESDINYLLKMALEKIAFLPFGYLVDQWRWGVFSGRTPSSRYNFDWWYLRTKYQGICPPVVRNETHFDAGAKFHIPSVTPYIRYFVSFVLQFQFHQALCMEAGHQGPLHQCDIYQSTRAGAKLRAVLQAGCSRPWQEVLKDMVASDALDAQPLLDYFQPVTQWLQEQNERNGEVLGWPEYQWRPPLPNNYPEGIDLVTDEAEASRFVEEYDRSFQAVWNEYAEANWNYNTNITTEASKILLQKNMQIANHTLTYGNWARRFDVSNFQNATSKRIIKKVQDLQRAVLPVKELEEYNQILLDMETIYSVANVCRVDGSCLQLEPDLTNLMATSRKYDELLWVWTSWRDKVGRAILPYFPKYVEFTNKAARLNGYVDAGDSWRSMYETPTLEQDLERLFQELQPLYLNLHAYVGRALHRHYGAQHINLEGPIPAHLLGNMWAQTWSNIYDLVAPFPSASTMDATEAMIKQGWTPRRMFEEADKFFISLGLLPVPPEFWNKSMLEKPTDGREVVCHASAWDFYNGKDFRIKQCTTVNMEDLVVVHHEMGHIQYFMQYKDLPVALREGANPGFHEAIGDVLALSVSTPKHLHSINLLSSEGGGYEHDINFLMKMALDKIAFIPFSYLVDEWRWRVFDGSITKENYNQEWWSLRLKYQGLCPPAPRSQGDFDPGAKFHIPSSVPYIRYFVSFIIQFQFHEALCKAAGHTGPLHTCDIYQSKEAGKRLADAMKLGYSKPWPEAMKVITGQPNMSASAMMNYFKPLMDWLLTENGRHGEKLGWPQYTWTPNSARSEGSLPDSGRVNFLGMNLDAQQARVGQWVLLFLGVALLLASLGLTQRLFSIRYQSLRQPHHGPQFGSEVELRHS

Chain of ACE (Homo sapiens, UniProt P12821) (P12821 30-1306, species assumed): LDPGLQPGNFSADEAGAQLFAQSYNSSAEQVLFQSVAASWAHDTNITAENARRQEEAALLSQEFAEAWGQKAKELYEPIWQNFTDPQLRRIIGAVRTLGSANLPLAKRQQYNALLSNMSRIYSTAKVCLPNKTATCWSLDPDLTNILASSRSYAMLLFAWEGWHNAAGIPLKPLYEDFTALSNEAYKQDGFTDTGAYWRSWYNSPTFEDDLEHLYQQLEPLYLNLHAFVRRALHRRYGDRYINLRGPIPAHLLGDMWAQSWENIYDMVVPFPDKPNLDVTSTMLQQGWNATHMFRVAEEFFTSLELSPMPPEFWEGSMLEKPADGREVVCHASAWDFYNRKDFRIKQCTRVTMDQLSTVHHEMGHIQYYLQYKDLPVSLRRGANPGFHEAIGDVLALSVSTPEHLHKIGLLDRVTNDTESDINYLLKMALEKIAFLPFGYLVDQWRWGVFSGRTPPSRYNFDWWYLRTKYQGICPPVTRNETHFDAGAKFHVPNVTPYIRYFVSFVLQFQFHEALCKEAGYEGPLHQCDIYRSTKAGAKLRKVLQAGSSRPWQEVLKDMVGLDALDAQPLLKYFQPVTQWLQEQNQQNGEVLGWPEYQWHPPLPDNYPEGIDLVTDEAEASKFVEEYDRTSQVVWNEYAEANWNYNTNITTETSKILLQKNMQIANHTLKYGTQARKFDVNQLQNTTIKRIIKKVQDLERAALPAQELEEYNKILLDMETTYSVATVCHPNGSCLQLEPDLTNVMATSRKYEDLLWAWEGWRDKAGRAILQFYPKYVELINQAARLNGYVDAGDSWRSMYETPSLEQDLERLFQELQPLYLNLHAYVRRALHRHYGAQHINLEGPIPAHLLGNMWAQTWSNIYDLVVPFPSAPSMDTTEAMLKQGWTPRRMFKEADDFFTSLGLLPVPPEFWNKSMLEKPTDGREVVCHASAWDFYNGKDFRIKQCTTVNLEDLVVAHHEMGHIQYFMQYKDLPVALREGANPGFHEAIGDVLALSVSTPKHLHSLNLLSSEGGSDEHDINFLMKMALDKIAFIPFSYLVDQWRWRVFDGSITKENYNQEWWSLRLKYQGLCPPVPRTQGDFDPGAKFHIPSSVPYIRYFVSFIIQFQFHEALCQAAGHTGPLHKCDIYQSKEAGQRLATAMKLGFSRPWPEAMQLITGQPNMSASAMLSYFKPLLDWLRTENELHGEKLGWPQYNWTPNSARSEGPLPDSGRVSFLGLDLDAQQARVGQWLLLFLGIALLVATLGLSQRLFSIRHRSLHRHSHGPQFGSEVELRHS

Row | Molecule | sensitivity relative to the sulfate-stimulated HipHisLeu assay [1] | sensitivity relative to the assay using ^3 H-HipGlyGly ([1]; radioactivity of remnant product, HipHisLeu assay sulfate stimulated) | extraction into ethyl acetate ([2]; acidified with dilute hydrochloric acid) | fraction entering the toluene phase ([2]; toluene and acidified reaction mixture in approximately equal volumes, room temperature) [%] | hydrolysis in the absence of any added salt [3] | Km [4] [µM] | competitive substrate of ACE [5] | substrate for the enzyme [6] | cleavage in the presence of chloride ([6]; vs. buffer of undisclosed composition)
1 | ^3 H-benzoylPheAlaPro | about 10 times | approximately 200 times | extracted almost quantitatively into ethyl acetate | 6 | ACE will hydrolyze | 14 | – | – | –
2 | NC(N)=NCCC[C@H](NC(=O)[C@H](Cc1ccccc1)NC(=O)[C@@H]1CCCN1C(=O)[C@H](CO)NC(=O)[C@H](Cc1ccccc1)NC(=O)CNC(=O)[C@@H]1CCCN1C(=O)[C@@H]1CCCN1C(=O)[C@@H](N)CCCN=C(N)N)C(=O)O [bradykinin, ArgProProGlyPheSerProPheArg] (H-RPPGFSPFR-OH) | – | – | – | – | – | – | competitive substrates | – | –
3 | <GluLysTrpAlaPro ([pGlu]KWAP) [BPP5a] | – | – | – | – | – | – | competitive substrates | could serve as a substrate for the enzyme | proceeded more slowly in the presence of chloride
